Source: ChEMBL document CHEMBL4417633, “Inhibitory polypeptides specific to WNT inhibitors” (2017)
Where a SMILES comes first, the peptide text is derived from it.

What was measured:
[1] = molecular target: T1, Dickkopf WNT-signaling pathway inhibitor 1 (Rattus norvegicus, UniProt A6I0Z0); test: Inhibition of biotin-labeled rat recombinant DKK1 assessed as reduction in DKK1 interaction with LRP-6/Fc incubated overnight by chemiluminescence based Alpha-screen assay
T1 sequence (A6I0Z0 whole entry): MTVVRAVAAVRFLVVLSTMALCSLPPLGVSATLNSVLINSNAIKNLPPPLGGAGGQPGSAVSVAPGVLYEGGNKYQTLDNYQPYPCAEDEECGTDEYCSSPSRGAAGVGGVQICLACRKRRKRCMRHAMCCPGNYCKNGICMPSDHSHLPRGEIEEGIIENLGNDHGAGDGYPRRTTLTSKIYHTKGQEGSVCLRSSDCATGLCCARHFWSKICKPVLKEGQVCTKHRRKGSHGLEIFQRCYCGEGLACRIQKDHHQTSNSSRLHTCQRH

[2] = molecular target: T2, Dickkopf-related protein 1 (Homo sapiens, UniProt O94907); test: Inhibition of biotin-labeled human recombinant DKK1 assessed as reduction in DKK1 interaction with LRP-6/Fc incubated overnight by chemiluminescence based Alpha-screen assay
T2 sequence (O94907 whole entry): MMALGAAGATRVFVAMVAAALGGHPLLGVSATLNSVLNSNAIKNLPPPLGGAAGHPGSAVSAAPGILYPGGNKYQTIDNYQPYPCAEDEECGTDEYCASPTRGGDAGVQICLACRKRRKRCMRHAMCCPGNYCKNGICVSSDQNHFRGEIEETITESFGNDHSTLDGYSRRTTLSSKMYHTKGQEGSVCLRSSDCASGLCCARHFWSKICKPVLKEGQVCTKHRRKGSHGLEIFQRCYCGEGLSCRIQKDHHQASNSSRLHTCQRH

Row | SMILES | IC50 [1] [nM] | IC50 [2] [nM]
1 | CC[C@H](C)[C@H](NC(=O)[C@H](CCCCN)NC(=O)[C@H](CC(=O)O)NC(=O)[C@H](C)NC(=O)[C@H](CS)NC(=O)[C@H](CCSC)NC(=O)[C@H](Cc1ccccc1)NC(=O)[C@H](CCC(=O)O)NC(=O)[C@H](CC(N)=O)NC(=O)[C@H](CO)NC(=O)[C@@H]1CCCN1C(=O)[C@@H](N)CS)C(=O)N[C@@H](CS)C(=O)N[C@@H](Cc1ccccc1)C(=O)N1CCC[C@H]1C(=O)N[C@@H](CC(C)C)C(=O)N[C@@H](CO)C(=O)N[C@@H](Cc1ccccc1)C(=O)N[C@@H](CC(C)C)C(=O)N[C@@H](CS)C(=O)N[C@@H](CC(=O)O)C(=O)NCC(=O)N[C@@H](CCC(=O)O)C(=O)N[C@@H](CC(N)=O)C(=O)N[C@@H](CC(=O)O)C(=O)N[C@@H](CS)C(=O)N[C@@H](CC(C)C)C(=O)N[C@@H](CC(=O)O)C(=O)NCC(=O)N[C@@H](CO)C(=O)N[C@@H](CC(=O)O)C(=O)N[C@@H](CCC(=O)O)C(=O)N[C@@H](CC(=O)O)C(=O)N[C@@H](Cc1ccc(O)cc1)C(=O)N[C@@H](CS)C(=O)N1CCC[C@H]1C(=O)N[C@@H](CO)C(=O)N[C@@H](CCCNC(=N)N)C(=O)N[C@H](C(=O)O)[C@@H](C)O (H-CPSNEFMCADKICFPLSFLCDGENDCLDGSDEDYCPSRT-OH) | ≤ 1 | ≤ 1
2 | CC[C@H](C)[C@H](NC(=O)[C@H](CC(N)=O)NC(=O)CNC(=O)[C@H](CS)NC(=O)[C@H](CCC(N)=O)NC(=O)[C@H](Cc1ccccc1)NC(=O)[C@H](Cc1ccc(O)cc1)NC(=O)[C@H](CO)NC(=O)[C@@H]1CCCN1C(=O)[C@@H]1CCCN1C(=O)[C@@H](N)CS)C(=O)N[C@@H](CC(N)=O)C(=O)N[C@@H](Cc1cnc[nH]1)C(=O)N[C@@H](CS)C(=O)N[C@@H](Cc1ccc(O)cc1)C(=O)N1CCC[C@H]1C(=O)N[C@@H](CCSC)C(=O)N[C@@H](CCC(=O)O)C(=O)N[C@@H](Cc1c[nH]c2ccccc12)C(=O)N[C@@H](CCCNC(=N)N)C(=O)N[C@@H](CS)C(=O)N[C@@H](CC(=O)O)C(=O)NCC(=O)N[C@@H](Cc1ccccc1)C(=O)N[C@@H](Cc1cnc[nH]1)C(=O)N[C@@H](CC(=O)O)C(=O)N[C@@H](CS)C(=O)N[C@H](C(=O)N[C@@H](CC(=O)O)C(=O)NCC(=O)N[C@@H](CO)C(=O)N[C@@H](CC(=O)O)C(=O)N[C@@H](CCC(=O)O)C(=O)N[C@@H](CCC(N)=O)C(=O)NCC(=O)N[C@@H](CS)C(=O)N1CCC[C@H]1C(=O)N[C@@H](Cc1ccc(O)cc1)C(=O)N[C@@H](CCCNC(=N)N)C(=O)N[C@H](C(=O)O)[C@@H](C)O)C(C)C (H-CPPSYFQCGNINHCYPMEWRCDGFHDCVDGSDEQGCPYRT-OH) | ≤ 1 | ≤ 1
3 | CSCC[C@H](NC(=O)[C@@H]1CCCN1C(=O)[C@H](Cc1ccc(O)cc1)NC(=O)[C@H](CS)NC(=O)[C@H](Cc1cnc[nH]1)NC(=O)[C@H](CC(N)=O)NC(=O)[C@H](CC(C)C)NC(=O)[C@H](CC(N)=O)NC(=O)CNC(=O)[C@H](CS)NC(=O)[C@H](CCC(N)=O)NC(=O)[C@H](Cc1ccccc1)NC(=O)[C@H](Cc1ccc(O)cc1)NC(=O)[C@H](CO)NC(=O)[C@H](C)NC(=O)[C@@H]1CCCN1C(=O)[C@@H](N)CS)C(=O)N[C@@H](CCC(=O)O)C(=O)N[C@@H](Cc1c[nH]c2ccccc12)C(=O)N[C@@H](CCCNC(=N)N)C(=O)N[C@@H](CS)C(=O)N[C@@H](CC(=O)O)C(=O)NCC(=O)N[C@@H](Cc1ccccc1)C(=O)N[C@@H](CCC(N)=O)C(=O)N[C@@H](CC(=O)O)C(=O)N[C@@H](CS)C(=O)N[C@H](C(=O)N[C@@H](CC(=O)O)C(=O)NCC(=O)N[C@@H](CO)C(=O)N[C@@H](CC(=O)O)C(=O)N[C@@H](CCC(=O)O)C(=O)N[C@@H](CCCCN)C(=O)NCC(=O)N[C@@H](CS)C(=O)N1CCC[C@H]1C(=O)N[C@@H](Cc1ccc(O)cc1)C(=O)N[C@@H](CCCNC(=N)N)C(=O)N[C@H](C(=O)O)[C@@H](C)O)C(C)C (H-CPASYFQCGNLNHCYPMEWRCDGFQDCVDGSDEKGCPYRT-OH) | ≤ 1 | ≤ 1

Next, values leading:

Row | IC50 [1] [nM] | IC50 [2] [nM] | SMILES
4 | ≤ 1 | ≤ 1 | CC[C@H](C)[C@H](NC(=O)[C@H](CCC(=O)O)NC(=O)[C@H](CC(=O)O)NC(=O)[C@H](CO)NC(=O)CNC(=O)[C@H](CC(=O)O)NC(=O)[C@@H](NC(=O)[C@H](CS)NC(=O)[C@H](CC(=O)O)NC(=O)[C@H](Cc1cnc[nH]1)NC(=O)[C@H](Cc1ccccc1)NC(=O)CNC(=O)[C@H](CC(=O)O)NC(=O)[C@H](CS)NC(=O)[C@H](CCCNC(=N)N)NC(=O)[C@H](Cc1c[nH]c2ccccc12)NC(=O)[C@H](CCC(=O)O)NC(=O)[C@H](CCSC)NC(=O)[C@@H]1CCCN1C(=O)[C@H](Cc1ccc(O)cc1)NC(=O)[C@H](CS)NC(=O)[C@H](Cc1cnc[nH]1)NC(=O)[C@H](CC(N)=O)NC(=O)[C@H](Cc1cnc[nH]1)NC(=O)[C@H](Cc1cnc[nH]1)NC(=O)[C@H](CCCNC(=N)N)NC(=O)[C@H](CS)NC(=O)[C@H](CCC(N)=O)NC(=O)[C@H](Cc1ccccc1)NC(=O)[C@H](Cc1ccc(O)cc1)NC(=O)[C@H](CO)NC(=O)[C@H](C)NC(=O)[C@@H]1CCCN1C(=O)[C@@H](N)CS)C(C)C)C(=O)NCC(=O)N[C@@H](CS)C(=O)N1CCC[C@H]1C(=O)N[C@@H](Cc1ccc(O)cc1)C(=O)N[C@@H](CCCNC(=N)N)C(=O)N[C@H](C(=O)O)[C@@H](C)O (H-CPASYFQCRHHNHCYPMEWRCDGFHDCVDGSDEIGCPYRT-OH)
5 | 40 to 80 | 40 to 80 | CC[C@H](C)[C@H](NC(=O)[C@H](CC(C)C)NC(=O)[C@@H]1CCCN1C(=O)[C@H](Cc1ccccc1)NC(=O)[C@H](CS)NC(=O)[C@H](CCSC)NC(=O)[C@H](CCCCN)NC(=O)[C@H](CC(=O)O)NC(=O)[C@H](C)NC(=O)[C@H](CS)NC(=O)[C@H](CCSC)NC(=O)[C@H](Cc1ccccc1)NC(=O)[C@H](CCC(=O)O)NC(=O)[C@H](CC(N)=O)NC(=O)[C@H](CO)NC(=O)[C@@H]1CCCN1C(=O)[C@@H](N)CS)C(=O)N[C@@H](Cc1ccccc1)C(=O)N[C@@H](CC(C)C)C(=O)N[C@@H](CS)C(=O)N[C@@H](CC(=O)O)C(=O)NCC(=O)N[C@@H](CCC(=O)O)C(=O)N[C@@H](CC(N)=O)C(=O)N[C@@H](CC(=O)O)C(=O)N[C@@H](CS)C(=O)N[C@@H](CCC(=O)O)C(=O)N[C@@H](CC(=O)O)C(=O)NCC(=O)N[C@@H](CO)C(=O)N[C@@H](CC(=O)O)C(=O)N[C@@H](CCC(=O)O)C(=O)N[C@H](C(=O)N[C@@H](CC(=O)O)C(=O)N[C@@H](CS)C(=O)N1CCC[C@H]1C(=O)N[C@@H](CO)C(=O)N[C@@H](CCCNC(=N)N)C(=O)N[C@H](C(=O)O)[C@@H](C)O)C(C)C (H-CPSNEFMCADKMCFPLIFLCDGENDCEDGSDEVDCPSRT-OH)
6 | ≤ 1 | ≤ 1 | CC[C@H](C)[C@H](NC(=O)[C@H](CC(C)C)NC(=O)[C@@H]1CCCN1C(=O)[C@H](Cc1ccccc1)NC(=O)[C@H](CS)NC(=O)[C@H](CCSC)NC(=O)[C@H](CCCCN)NC(=O)[C@H](CC(=O)O)NC(=O)[C@@H]1CCCN1C(=O)[C@H](CS)NC(=O)[C@H](CCSC)NC(=O)[C@H](Cc1ccccc1)NC(=O)[C@H](CCC(=O)O)NC(=O)[C@H](CC(N)=O)NC(=O)[C@H](CC(C)C)NC(=O)[C@@H]1CCCN1C(=O)[C@@H](N)CS)C(=O)N[C@@H](Cc1ccccc1)C(=O)N[C@@H](CC(C)C)C(=O)N[C@@H](CS)C(=O)N[C@@H](CC(=O)O)C(=O)NCC(=O)N[C@@H](CCC(=O)O)C(=O)N[C@@H](CC(N)=O)C(=O)N[C@@H](CC(=O)O)C(=O)N[C@@H](CS)C(=O)N[C@@H](Cc1cnc[nH]1)C(=O)N[C@@H](CC(=O)O)C(=O)NCC(=O)N[C@@H](CO)C(=O)N[C@@H](CC(=O)O)C(=O)N[C@@H](CCC(=O)O)C(=O)N[C@@H](C)C(=O)N[C@@H](Cc1ccc(O)cc1)C(=O)N[C@@H](CS)C(=O)N1CCC[C@H]1C(=O)N[C@@H](CO)C(=O)N[C@@H](CCCNC(=N)N)C(=O)N[C@H](C(=O)O)[C@@H](C)O (H-CPLNEFMCPDKMCFPLIFLCDGENDCHDGSDEAYCPSRT-OH)
7 | ≤ 1 | ≤ 1 | CSCC[C@H](NC(=O)[C@H](Cc1ccccc1)NC(=O)[C@H](CCC(=O)O)NC(=O)[C@H](CC(N)=O)NC(=O)[C@H](CCCNC(=N)N)NC(=O)[C@@H]1CCCN1C(=O)[C@@H](N)CS)C(=O)N[C@@H](CS)C(=O)N[C@@H](C)C(=O)N[C@@H](CC(=O)O)C(=O)N[C@@H](CCCCN)C(=O)N[C@@H](CCSC)C(=O)N[C@@H](CS)C(=O)N[C@@H](Cc1ccccc1)C(=O)N1CCC[C@H]1C(=O)N[C@H](C(=O)N[C@@H](CO)C(=O)N[C@@H](Cc1ccccc1)C(=O)N[C@@H](CC(C)C)C(=O)N[C@@H](CS)C(=O)N[C@@H](CC(=O)O)C(=O)NCC(=O)N[C@@H](CCC(=O)O)C(=O)N[C@@H](CC(N)=O)C(=O)N[C@@H](CC(=O)O)C(=O)N[C@@H](CS)C(=O)N[C@@H](CCC(=O)O)C(=O)N[C@@H](CC(=O)O)C(=O)NCC(=O)N[C@@H](CO)C(=O)N[C@@H](CC(=O)O)C(=O)N[C@@H](CCC(=O)O)C(=O)N[C@@H](CC(=O)O)C(=O)N[C@@H](Cc1ccc(O)cc1)C(=O)N[C@@H](CS)C(=O)N1CCC[C@H]1C(=O)N[C@@H](CO)C(=O)N[C@@H](CCCNC(=N)N)C(=O)N[C@H](C(=O)O)[C@@H](C)O)C(C)C (H-CPRNEFMCADKMCFPVSFLCDGENDCEDGSDEDYCPSRT-OH)
